Data taken from paper PMC3963473, “Structure–Activity Relationship Studies of Pyrrolone Antimalarial Agents” (Chemmedchem, 2013).
Like-named read-outs stand apart in the source and are kept apart here.

Assays:
Plasmodium falciparum K1 = experiment: microbe, parasite or virus in culture; type: cell-based; settings: Plasmodium falciparum, K1, read-out: EC50 P. falc.
Procedure: (§1) V. Design and Results of the in vitro & in vivo Studies.
A. Drug inhibition of in vitro cultured P. falciparum parasite:2 All in vitro assays were carried out twice independently. In vitro activity against the erythrocytic stages of P. falciparum was determined by using a 3H-hypoxanthine incorporation assay,5-6 using the […]
were dissolved in DMSO at 10 mg/mL and added to parasite cultures incubated in RPMI […]
haematocrit (0.3% parasitaemia). Serial doubling dilutions of each drug were prepared in […]
After 48 h, 50 µL of 3H-hypoxanthine (= 0.5 µCi) was added to each well of the plate. The plates were incubated for an additional 24 h under the same conditions. The plates were then harvested with a Betaplate cell harvester (Wallac, Zurich, Switzerland), and the red blood cells were transferred onto a glass fiber filter and then washed with distilled water. The dried filters were inserted into a plastic foil with 10 mL of scintillation fluid and were counted in a Betaplate™ liquid scintillation counter (Wallac, Zurich, […]

L6 cells = experiment: In vitro cytotoxicity assay in L6 cells (Alamar Blue); type: cell-based; settings: Rattus norvegicus
Procedure: as §1
A. Drug inhibition of in vitro cultured P. falciparum parasite:2 All in vitro assays were carried out twice independently. In vitro activity against the erythrocytic stages of P. […]
B. In vitro cytotoxicity assay:2 Assays were performed in 96-well microtiter plates, each […]
mM) and 10% fetal bovine serum, and 4 x 10^4 L-6 cells (a primary cell line derived from rat skeletal myoblasts). Serial drug dilutions of seven 3-fold dilution steps covering a range […]
After 72 h of incubation the plates were inspected […]
of Alamar Blue was then added to each well and the plates incubated for another 2 h.
Then the plates were read with a Spectramax Gemini XS microplate fluorometer (Molecular Devices Cooperation, Sunnyvale, CA, USA) using an excitation wave length of […]
Data were analysed using the microplate reader software Softmax Pro (Molecular Devices Cooperation, Sunnyvale, CA, USA).

[1] = Table 1, A-ring variants, mammalian L6 cells, mean of two independent assays, read-out: EC50 L6 cells

CCOC(=O)C1=C(C)N/C(=C/c2cc(C)n(C3CCNCC3)c2C)C1=O [Compound 18]
EC50 (Plasmodium falciparum K1): 12 µM
EC50 (L6 cells; [1]): > 250 µM
melting point: > 250 °C

CCOC(=O)C1=C(C)N/C(=C/c2cc(C)n(C3CCN(C)CC3)c2C)C1=O [Compound 19]
EC50 (Plasmodium falciparum K1): 1.4 µM
EC50 (L6 cells; [1]): 7.8 µM
melting point: 130 to 135 °C

CCOC(=O)C1=C(C)N/C(=C/c2cc(C)n(C3CCN(CCC(C)C)CC3)c2C)C1=O [Compound 21]
EC50 (Plasmodium falciparum K1): 0.19 µM
EC50 (L6 cells; [1]): 22 µM
melting point: 158 to 162 °C

CCCN1CCC(n2c(C)cc(/C=C3/NC(C)=C(C(=O)OCC)C3=O)c2C)CC1 [Compound 22]
EC50 (Plasmodium falciparum K1): 1.1 µM
EC50 (L6 cells; [1]): 6.6 µM
melting point: 145 to 148 °C

CCOC(=O)C1=C(C)N/C(=C/c2cc(C)n(C3CCN(CC(C)(C)C)CC3)c2C)C1=O [Compound 23]
EC50 (Plasmodium falciparum K1): 0.058 µM
EC50 (L6 cells; [1]): 88 µM
melting point: 139 to 142 °C

CCOC(=O)C1=C(C)N/C(=C/c2cc(C)n(C3CCN(CCc4ccccc4)CC3)c2C)C1=O [Compound 31]
EC50 (Plasmodium falciparum K1): 0.32 µM
EC50 (L6 cells; [1]): 107 µM

CCOC(=O)C1=C(C)N/C(=C/c2cc(C)n(C3CCN(CCc4ccc(C(F)(F)F)cc4)CC3)c2C)C1=O [Compound 33]
EC50 (Plasmodium falciparum K1): 0.13 µM
EC50 (L6 cells; [1]): 19 µM

CCOC(=O)C1=C(C)N/C(=C/c2cc(C)n(C3CCN(C(C)c4ccc(C(F)(F)F)cc4)CC3)c2C)C1=O (stereo not shown) [Compound 35]
EC50 (Plasmodium falciparum K1): 0.007 µM
EC50 (L6 cells; [1]): 4.26 µM

CCOC(=O)C1=C(C)N/C(=C/c2cc(C)n(C3CCN(CCN4CCOCC4)CC3)c2C)C1=O [Compound 37]
EC50 (Plasmodium falciparum K1): 5.3 µM
EC50 (L6 cells; [1]): 89 µM
melting point: 115 to 118 °C

CCOC(=O)C1=C(C)N/C(=C/c2cc(C)n(C3CCN(CCN4CCCCC4)CC3)c2C)C1=O [Compound 38]
EC50 (Plasmodium falciparum K1): 2.4 µM
EC50 (L6 cells; [1]): 97 µM
melting point: 122 to 125 °C

CCOC(=O)C1=C(C)N/C(=C/c2cc(C)n(C3CCN(CC4CC4)CC3)c2C)C1=O [Compound 39]
EC50 (Plasmodium falciparum K1): 3.5 µM
EC50 (L6 cells; [1]): 14 µM
melting point: 142 to 146 °C

CCOC(=O)C1=C(C)N/C(=C/c2cc(C)n(C3CCN(CC4CCOCC4)CC3)c2C)C1=O [Compound 41]
EC50 (Plasmodium falciparum K1): 0.11 µM
EC50 (L6 cells; [1]): 43 µM
melting point: 180 to 183 °C

CCOC(=O)C1=C(C)N/C(=C/c2cc(C)n(C3CCN(CC4CCN(C)CC4)CC3)c2C)C1=O [Compound 42]
EC50 (Plasmodium falciparum K1): 1.4 µM
EC50 (L6 cells; [1]): 81 µM
melting point: 230 to 235 °C

CCOC(=O)C1=C(C)N/C(=C/c2cc(C)n(C3CCN(Cc4ccn(C)n4)CC3)c2C)C1=O [Compound 45]
EC50 (Plasmodium falciparum K1): 0.15 µM
EC50 (L6 cells; [1]): 36 µM
melting point: 180 to 184 °C

CCOC(=O)C1=C(C)N/C(=C/c2cc(C)n(C3CCN(Cc4ncc[nH]4)CC3)c2C)C1=O [Compound 46]
EC50 (Plasmodium falciparum K1): 1.2 µM
EC50 (L6 cells; [1]): 28 µM
melting point: 185 to 190 °C

CCOC(=O)C1=C(C)N/C(=C/c2cc(C)n(C3CCN(Cc4cc(C)on4)CC3)c2C)C1=O [Compound 47]
EC50 (Plasmodium falciparum K1): 0.1 µM
EC50 (L6 cells; [1]): 42 µM
melting point: 185 to 188 °C

CCOC(=O)C1=C(C)N/C(=C/c2cc(C)n(C3CCN(Cc4nccn4C)CC3)c2C)C1=O [Compound 49]
EC50 (Plasmodium falciparum K1): 1 µM
EC50 (L6 cells; [1]): 16 µM
melting point: 186 to 189 °C

CCOC(=O)C1=C(C)N/C(=C/c2cc(C)n(C3CCN(Cc4cccn4C)CC3)c2C)C1=O [Compound 50]
EC50 (Plasmodium falciparum K1): 0.012 µM
EC50 (L6 cells; [1]): 3 µM
melting point: 190 to 194 °C

CCOC(=O)C1=C(C)N/C(=C/c2cc(C)n(C3CCN(Cc4ccc(N5CCOCC5)nc4)CC3)c2C)C1=O [Compound 52]
EC50 (Plasmodium falciparum K1): 1.5 µM
EC50 (L6 cells; [1]): 50 µM
melting point: > 280 °C

CCOC(=O)C1=C(C)N/C(=C/c2cc(C)n(C3CCN(Cc4cnc(N5CCOCC5)nc4)CC3)c2C)C1=O [Compound 53]
EC50 (Plasmodium falciparum K1): 0.075 µM
EC50 (L6 cells; [1]): 28 µM
melting point: 194 to 199 °C

COc1cc([C@@H]2c3cc4c(cc3[C@H](O)[C@H]3COC(=O)[C@H]23)OCO4)cc(OC)c1OC [podophyllotoxin, reference compound]
EC50 (L6 cells; L6, read-out: EC50 L6 cells): 0.009 to 0.022 µM
